Patent US9783518B2, “Therapeutic agent and treatment method for ameliorating uremia” (Toray Industries, Inc., priority 2005, dated 2017)
Entries after “also recorded” stand apart in the source; their conditions may differ.

Assays:
healthy cats = test: Observation of general clinical symptoms (adverse events) after administration of beraprost sodium to healthy cats; assay type: in vivo, cat; parameters: key to grade of adverse events (diarrhea, vomiting, sedation) / grade of adverse events (vomiting, diarrhea, sedation): no abnormality observed (Grade 0); slight (Grade 1); moderate (Grade 2); severe (Grade 3); conditions: for adverse events (clinical symptoms): 5 healthy cats
Method: In this study, 3 male cats and 2 female cats, totally 5 Japanese cats, aging 3 to 6 years old were used, which were raised in an animal hospital and for which no abnormalities were observed clinically and by blood test. The subject cats were individually placed in each cage in which each cat was allowed to take water ad libitum, and each cat was fed twice a day after measuring the necessary items. For the purpose of acclimatization, the cats were measured for blood pressure noninvasively twice a day for 2 weeks.
Observations of general clinical symptoms caused by administration of beraprost sodium to healthy cats were performed as follows: Whether adverse events such as ataxia, sedation, lying, suffusion of visible mucosa, lacrimation, hypersalivation, vomiting, diarrhea, incontinence and change in respiratory conditions were expressed or not was observed. Observation was performed before administration, and 30 minutes, 1 hour, 2 hours and 3 hours after each administration during the continuous 7 days in which the drug was administered every day. Each evaluation was performed by rating in 4 ranks as follows: Respiratory conditions were ranked into: no abnormality observed (Grade 0); accelerated respiration (Grade 1); hypopnea (Grade 2); and dyspnea (Grade 3). Ataxia was ranked into: no abnormality observed (Grade 0); slight (Grade 1); moderate (Grade 2); and abasia (Grade 3). Sedation (response to verbal contact) and lying (response to verbal contact) were ranked into: no abnormality observed (Grade 0); slight (Grade 1); moderate (Grade 2); and no response (Grade 3). Evaluations of lacrimation, hypersalivation, vomiting, diarrhea and incontinence were ranked into: no abnormality observed (Grade 0); slight (Grade 1); moderate (Grade 2); and severe (Grade 3).
In each administration series, the same cat was used in each administration series as the subject cat for the correctness of the evaluation of the test drug. To eliminate the influence of the test drug of the previous series, wash out period of 2 weeks were given after the termination of the respective series. In the beraprost sodium administration series and the placebo administration series, the solution-containing capsules prepared in Example 2 were used. Administration was performed orally at fasting twice a day at intervals of 12 hours for continuous 7 days.
Statistical analysis was carried out using a statistical software Stat View J-4.5 (Abacus Concepts). Since the parameter values before and after the administration to the same individual are compared, significant test was carried out by the paired t-test. In any of the cases, when the significance level was less than 5%, it was judged as significant.

[1] = system: patients with diabetic nephropathy; conditions: cited from earlier work
[2] = system: dog with chronic renal failure; test: Adverse events in dog with chronic renal failure (Case-H); assay type: in vivo; conditions: 150 μg/capsule oral twice a day alone
Method: The subject patient to whom beraprost sodium was to be administered was a female dog (hybrid) of 14 years old with a body weight of 6.4 kg. The patient visited the hospital with chief complaints of anorexia and drastic decrease in activity. Based on the past history, clinical observations and results of clinical test, the dog was diagnosed as chronic renal failure. The clinical score at the first visit was as low as 2 points, and treatment with Covalzin at a dose of 200 mg/BID was started. […] In view of this, after obtaining consent by the client, treatment with Covalzin was stopped, and switched to administration of beraprost sodium alone. Beraprost sodium was diluted with polyethylene glycol (Wako) to attain a dose of 150 μg/capsule, and was divided into capsules (size 5 Shionogi Qualicaps). Beraprost sodium was orally administered twice a day at fasting. […] In the above-described series of therapy, feeding of a formula meal and infusion were not performed at all. […] Based on the above, it was first discovered that in chronic renal failure of dogs, in addition to cats, the effect of beraprost sodium to ameliorate uremic symptoms is clearly shown in spite of the fact that Serum Cre value and BUN value which are markers of renal function indicative of renal failure are continuously worsened.

[3] = system: cats with chronic renal failure; test: Blood biochemical analysis and urinalysis (BUN, serum Cre, glucose) in cats with chronic renal failure; assay type: in vivo, cat
Method: Testing methods for the patients showing uremia caused by chronic renal failure, employed in Example 4 or later, will now be described. The criteria and evaluation items for the cats and dogs with chronic renal failure are as follows: Diagnosis of uremia and chronic renal failure were performed totally taking clinical findings (including findings of uremia) and the results of the blood test, blood biochemical analysis and urinalysis into consideration. As the clinical findings of uremia, existence and degree of polydipsia and diuresis, dehydration, anorexia, weight loss, vomiting symptom and state of dehydration were observed. Existence of chronic renal failure was judged based on the serum Cre value as generally employed. As reference data for grasping the degree of progress of chronic renal failure, BUN value was also monitored.
In the blood test, RBC, WBC, PCV, Hg and PLT were measured. In the blood biochemical analysis, TP, Tcho, AST, ALT, ALP, Tbil, BUN, creatinine, calcium, inorganic phosphorus, glucose, sodium ion, potassium ion and chloride ion were measured. In the urinalysis, protein amount, pH, occult blood, bilirubin and glucose were measured. To eliminate the circadian rhythm and influence by meals on the values of blood biochemical markers, every blood collection was carried out in the morning before feeding (at fasting).
As a more specific criterion for chronic renal failure in cats and dogs in the present Examples, a serum Cre value of 1.4 mg/dL in the blood test was employed. Serum Cre value was measured by creatinine deaminase-amidohydrolase method, and the BUN value as reference data for grasping the degree of progress of chronic renal failure was measured by urease-GLDH method.
Administration of beraprost sodium was conducted by orally administering the tablet with a content of 150 μg/tablet (Example 1) twice a day (300 μg/head/day). The administration was conducted every day and continued basically for 6 months, and in cases where the owner desired, the administration was continued even after the test period. The Examples of the present invention include both cases where the dosing period was less than 6 months and more than 6 months.

[4] = system: rats which spontaneously develops hypertension; conditions: administered together with saline and special diet; cited from earlier work
[5] = Case-A, 150 μg oral BID alone, from start of administration
[6] = Case-A, 6 months after termination (12 months after start)
[7] = Case-B, daily administration for 1 and half years
[8] = Case-E, combination therapy, first about 3 months
[9] = Case-G cat, before the administration (baseline)

## CC#CC[C@@H](C)[C@H](O)/C=C/[C@@H]1[C@H]2c3cccc(CCCC(=O)[O-])c3O[C@H]2C[C@H]1O.[Na+] (mixture of isomers) [beraprost sodium, Sodium rac-(1R,2R,3aS,8bS)-2,3,3a,8b-tetrahydro-2-hydroxy-1-[(E)-(3S,4RS)-3-hydroxy-4-methyloct-1-en-6-ynyl]-1H-cyclopenta[b][1]benzofuran-5-butanoate]
Healthy cats; 10 μg/kg/BID oral, 7 days
  adverse events (clinical symptoms): not observed at all
Healthy cats; 30 μg/kg/BID oral, 7 days
  adverse events (clinical symptoms): not observed at all
Healthy cats; 70 μg/kg/BID oral, 7 days
  grade of adverse events (diarrhea, vomiting, sedation): Grade 1
Healthy cats; 70 μg/kg/BID oral, 7 days, sporadic, 2 to 6 days after administration
  cases with adverse events such as diarrhea, vomiting and sedation: 2/5
Healthy cats; 100 μg/kg/BID oral
  time of occurrence of adverse events after the administration: ≤ 2 h
Healthy cats; 100 μg/kg/BID oral, 7 days
  grade of adverse events (vomiting, diarrhea, sedation): Grade 2
Healthy cats; 100 μg/kg/BID oral, 7 days, from Day 2, frequent
  cats with vomiting, diarrhea and sedation: all cats
Healthy cats; 70 and 100 μg/kg/BID series, after 7 days
  reversibility of adverse events: disappeared by the next day of the final administration
[1]
  urinary microalbumin: decreased
[2]
  adverse events such as diarrhea, vomiting: no adverse event; also recorded: no adverse action
[3]; Case-A, 150 μg oral BID alone
  time at which BUN reached the minimum value: second
  time at which serum Cre reached the minimum value: fifth
[3]; [5]
  BUN: decreased
  serum Cre: decreased
[3]; [6]
  BUN at follow up: remained within the normal ranges; also recorded: maintained at normal levels
  serum Cre value at follow up: remained within the normal ranges; also recorded: maintained at normal levels
[3]; [7]
  BUN: maintained at the normal levels
  Cre: maintained at the normal levels
[3]; Case-B, first to second month
  BUN value: tendency that BUN value and serum Cre value increase
  serum Cre value: tendency that BUN value and serum Cre value increase
[3]; Case-B, from the fourth month
  BUN value: sharply decreased to the normal values
  serum Cre value: sharply decreased to the normal values
[3]; Case-C, during administration
  BUN value: continuously increased
  serum Cre value: did not change or slightly increased
[3]; Case-D, after administration
  BUN value: continuously increased
  serum Cre value: kept a high value
[3]; Case-E, 7th to 8th month
  BUN value: largely increased
  Cre value: kept high
[3]; [8]
  BUN value: continuously increased
  serum Cre value: kept high
[3]; Case-F, after start of beraprost sodium
  BUN value: kept high
[3]; Case-F, throughout the entire period
  serum Cre value: continuously increased
[3]; [9]
  BUN value: 52.2 mg/dL
  serum Cre value: 2.56 mg/dL
[4]
  onset of glomerulonephritis (urinary protein excretion, glomerulus tissue image): prevented
